Data taken from patent US20090246169A1, “INDOLOPYRIDINES AS EG5 KINESIN MODULATORS” (priority 2006, published 2009).

Test system: RKO p21 colon adenocarcinoma cells, uninduced (proliferating)
Assay: Alamar Blue cell viability assay, RKO p21 uninduced (proliferating)
Format: cell-based
Conditions: Homo sapiens; anti-proliferative/cytotoxic activity, 72 hours, without Ponasterone A; read-out: −log EC50 [mol/l] RKO p21 uninduced (proliferating) (converted)
Method: The anti-proliferative/cytotoxic activity of the compounds described herein can be tested on subclones of RKO human colon adenocarcinoma cells (Schmidt et al., Oncogene 19, 2423-2429; 2000) using the Alamar Blue cell viability assay (described in O'Brien et al. Eur J Biochem 267, 5421-5426, 2000). The compounds are dissolved as 10 mM solutions in DMSO and subsequently diluted in semi-logarithmic steps. DMSO dilutions are further diluted 1:100 into Dulbecco's modified Eagle's medium (DMEM) containing 10% fetal calf serum to a final concentration twice as much as the final concentration in the test. RKO subclones are seeded into 96 well flat bottom plates at a density of 4000 cells per well in a volume of 50 μl per well. 24 hours after seeding the 50 μl each of the compound dilutions in DMEM medium are added into each well of the 96 well plate. Each compound dilution is tested as triplicates. Wells containing untreated control cells are filled with 50 μl DMEM medium containing 1% DMSO. The cells are then incubated with the substances for 72 hours at 37° C. in a humidified atmosphere containing 5% carbon dioxide. To determine the viability of the cells, 10 μl of an Alamar Blue solution (Biosource) are added and the fluorescence is measured at an extinction of 544 nm and an emission of 590 nm. For the calculation of the cell viability the emission value from untreated cells is set as 100% viability and the emission rates of treated cells are set in relation to the values of untreated cells. Viabilities are expressed as % values. The Graphpad Prism program is used for the calculation of EC50 values for anti-proliferative/cytotoxic activity out of the obtained dose-response curves.
To determine the cell cycle specific mode of action, subclones of RKO colon adenocarcinoma cells (RKOp21 or RKOp27 as described by Schmidt et al. in Oncogene 19, 2423-2429; 2000) are seeded into 96 well flat bottom plates at a density of 16000 cells per well in a volume of 50 μl per well in DMEM growth medium with 10% FCS containing 10 μM Ponasterone A. 24 hours after seeding the 50 μl each of the compound dilutions in DMEM medium are added into each well of the 96-well plate. Each compound dilution is tested as triplicates. Wells containing untreated control cells are filled with 50 μl DMEM medium containing 1% DMSO. The cells are then incubated with the substances for 72 hours at 37° C. in a humidified atmosphere containing 5% carbon dioxide. To determine the viability of the cells, 10 μl of an Alamar Blue solution (Biosource) are added and the fluorescence is measured at an extinction of 544 nm and an emission of 590 nm. For the calculation of the cell viability the emission value from untreated cells is set as 100% viability and the emission rates of treated cells are set in relation to the values of untreated cells. Viabilities are expressed as % values. The Graphpad Prism program (GraphPad Software, Inc) is used for the calculation of EC50 values out of the obtained dose-response curves. Viability is compared of proliferating cells grown in the absence of the inducer Ponasterone A, versus viability of cells arrested by the expression of ectopic p27Kip1 induced by Ponasterone A.
Representative values for anti-proliferation/cytotoxicity [measured as −log EC50 (mol/l)] determined in the aforementioned assays follow from the following tables B1 and B2, in which the numbers of the compounds correspond to the numbers of the examples.

**Q.** How did the EC50 turn out when `COc1ccc2[nH]c3c(c2c1)C[C@@]1(C)C(=O)N(CCN2CCN(C)CC2)C(=O)N1[C@@H]3c1ccccc1` (racemic) [Example 34, (3aSR, 10RS)-6-Methoxy-3a-methyl-2-[2-(4-methyl-piperazin-1-yl)-ethyl]-10-phenyl-3a,4,9,10-tetrahydro-2,9,10a-triaza-cyclopenta[b] fluorene-1,3-dione] was run?
**A.** The EC50 was at most 1 µM.

**Q.** Which EC50 does the source give for `COc1ccc2[nH]c3c(c2c1)C[C@@]1(C)C(=O)N(CCNCC(C)C)C(=O)N1[C@@H]3c1ccccc1` (racemic) [Example 35, (3aSR, 10RS)-2-(2-Isobutyl-amino-ethyl)-6-methoxy-3a-methyl-10-phenyl-3a,4,9,10-tetrahydro-2,9,10a-triaza-cyclopenta[b]fluorene-1,3-dione] here?
**A.** The EC50 was at most 1 µM.

**Q.** For `CCN(CCO)CCN1C(=O)N2[C@H](c3ccccc3)c3[nH]c4ccc(OC)cc4c3C[C@@]2(C)C1=O` (racemic) [Example 36, (3aSR, 10RS)-2-{2-[Ethyl-(2-hydroxy-ethyl)-amino]-ethyl}-6-methoxy-3a-methyl-10-phenyl-3a,4,9,10-tetra-hydro-2,9,10a-triaza-cyclo-penta[b]fluorene-1,3-dione], which EC50 is on record?
**A.** Its EC50 is at most 1 µM.

**Q.** How did the EC50 turn out when `C=CCN(C)CCN1C(=O)N2[C@H](c3ccccc3)c3[nH]c4ccc(OC)cc4c3C[C@@]2(C)C1=O` (racemic) [Example 37, (3aSR, 10RS)-2-[2-(Allyl-methyl-amino)-ethyl]-6-methoxy-3a-methyl-10-phenyl-3a,4,9,10-tetrahydro-2,9,10a-triaza-cyclopenta [b]fluorene-1,3-dione] was run?
**A.** The EC50 was at most 1 µM.

**Q.** With `COc1ccc2[nH]c3c(c2c1)C[C@@]1(C)C(=O)N(CCN(C)C(C)C)C(=O)N1[C@@H]3c1ccccc1` (racemic) [Example 39, (3aSR, 10RS)-2-[2-(Isopropyl-methyl-amino)-ethyl]-6-methoxy-3a-methyl-10-phenyl-3a,4,9,10-tetra-hydro-2,9,10a-triaza-cyclo-penta[b]fluorene-1,3-dione] as the compound, how does the EC50 read?
**A.** Its EC50 is at most 1 µM.

**Q.** `COc1ccc2[nH]c3c(c2c1)C[C@@]1(C)C(=O)N(CCN2CCOCC2)C(=O)N1[C@@H]3c1ccccc1` (racemic) [Example 40, (3aSR, 10RS)-6-Methoxy-3a-methyl-2-(2-morpholin-4-yl-ethyl)-10-phenyl-3a,4,9,10-tetrahydro-2,9,10a-triaza-cyclopenta[b]fluorene-1,3-dione] was tested. Which EC50 did it give?
**A.** Its EC50 is at most 1 µM.

**Q.** How did the EC50 turn out when `CCN(CC)CCN1C(=O)N2[C@H](c3ccccc3)c3[nH]c4ccc(OC)cc4c3C[C@@]2(C)C1=O` (racemic) [Example 41, (3aSR, 10RS)-2-(2-Diethyl-amino-ethyl)-6-methoxy-3a-methyl-10-phenyl-3a,4,9,10-tetrahydro-2,9,10a-triaza-cyclopenta[b]fluorene-1,3-dione] was run?
**A.** Its EC50 is at most 1 µM.

**Q.** Which EC50 does the source give for `COc1ccc2[nH]c3c(c2c1)C[C@@]1(C)C(=O)N(CCN2CCCCCC2)C(=O)N1[C@@H]3c1ccccc1` (racemic) [Example 43, (3aSR, 10RS)-2-(2-Azepan-1-yl-ethyl)-6-methoxy-3a-methyl-10-phenyl-3a,4,9,10-tetrahydro-2,9,10a-triaza-cyclopenta[b]fluorene-1,3-dione] here?
**A.** The EC50 was at most 1 µM.

**Q.** Which EC50 does the source give for `CCNCCCN1C(=O)N2[C@H](c3ccccc3)c3[nH]c4ccc(OC)cc4c3C[C@@]2(C)C1=O` (racemic) [Example 44, (3aSR, 10RS)-2-(3-Ethyl-amino-propyl)-6-methoxy-3a-methyl-10-phenyl-3a,4,9,10-tetrahydro-2,9,10a-triaza-cyclopenta[b]fluorene-1,3-dione] here?
**A.** The EC50 was at most 1 µM.

**Q.** How did the EC50 turn out when `COc1ccc2[nH]c3c(c2c1)C[C@@]1(C)C(=O)N(CCCN(C)C)C(=O)N1[C@@H]3c1ccccc1` (racemic) [Example 45, (3aSR, 10RS)-2-(3-Dimethylamino-propyl)-6-methoxy-3a-methyl-10-phenyl-3a,4,9,10-tetrahydro-2,9,10a-triaza-cyclopenta[b] fluorene-1,3-dione] was run?
**A.** Its EC50 is at most 1 µM.

**Q.** `COc1ccc2[nH]c3c(c2c1)C[C@@]1(C)C(=O)N(CCCN(C)CCO)C(=O)N1[C@@H]3c1ccccc1` (racemic) [Example 46, (3aSR, 10RS)-2-{3-[(2-Hydroxy-ethyl)-methyl-amino]-propyl}-6-methoxy-3a-methyl-10-phenyl-3a,4,9,10-tetrahydro-2,9,10a-triaza-cyclopenta[b]fluorene-1,3-dione] was tested. Which EC50 did it give?
**A.** The EC50 was at most 1 µM.

**Q.** How did the EC50 turn out when `COc1ccc2[nH]c3c(c2c1)C[C@@]1(C)C(=O)N(CCN2CCN(C(C)=O)CC2)C(=O)N1[C@@H]3c1ccccc1` (racemic) [Example 47, (3aSR, 10RS)-2-[2-(4-Acetyl-piperazin-1-yl)-ethyl]-6-methoxy-3a-methyl-10-phenyl-3a,4,9,10-tetrahydro-2,9,10a-triaza-cyclopenta[b] fluorene-1,3-dione] was run?
**A.** Its EC50 is at most 1 µM.

**Q.** For `COc1ccc2[nH]c3c(c2c1)C[C@@]1(C)C(=O)N(CCNC2CC2)C(=O)N1[C@@H]3c1ccccc1` (racemic) [Example 49, (3aSR, 10RS)-2-(2-Cyclo-propylamino-ethyl)-6-methoxy-3a-methyl-10-phenyl-3a,4,9,10-tetrahydro-2,9,10a-triaza-cyclopenta [b]fluorene-1,3-dione], which EC50 is on record?
**A.** The EC50 was at most 1 µM.

**Q.** With `COc1ccc2[nH]c3c(c2c1)C[C@@]1(C)C(=O)N(CCCNC(C)C)C(=O)N1[C@@H]3c1ccccc1` (racemic) [Example 51, (3aSR, 10RS)-2-(3-Isopropylamino-propyl)-6-methoxy-3a-methyl-10-phenyl-3a,4,9,10-tetrahydro-2,9,10a-triaza-cyclopenta[b] fluorene-1,3-dione] as the compound, how does the EC50 read?
**A.** Its EC50 is at most 1 µM.

**Q.** For `COc1ccc2[nH]c3c(c2c1)C[C@@]1(C)C(=O)N(CCCNCC(C)C)C(=O)N1[C@@H]3c1ccccc1` (racemic) [Example 52, (3aSR, 10RS)-2-(3-Isobutylamino-propyl)-6-methoxy-3a-methyl-10-phenyl-3a,4,9,10-tetrahydro-2,9,10a-triaza-cyclopenta[b] fluorene-1,3-dione], which EC50 is on record?
**A.** Its EC50 is at most 1 µM.

**Q.** For `CCN(C)CCCN1C(=O)N2[C@H](c3ccccc3)c3[nH]c4ccc(OC)cc4c3C[C@@]2(C)C1=O` (racemic) [Example 53, (3aSR, 10RS)-2-[3-(Ethyl-methyl-amino)-propyl]-6-methoxy-3a-methyl-10-phenyl-3a,4,9,10-tetrahydro-2,9,10a-triaza-cyclopenta[b] fluorene-1,3-dione], which EC50 is on record?
**A.** The EC50 was at most 1 µM.

**Q.** With `CCN(CC)CCCN1C(=O)N2[C@H](c3ccccc3)c3[nH]c4ccc(OC)cc4c3C[C@@]2(C)C1=O` (racemic) [Example 54, (3aSR, 10RS)-2-(3-Diethyl-amino-propyl)-6-methoxy-3a-methyl-10-phenyl-3a,4,9,10-tetrahydro-2,9,10a-triaza-cyclopenta[b]fluorene-1,3-dione] as the compound, how does the EC50 read?
**A.** The EC50 was at most 1 µM.

**Q.** `CCN(CCO)CCCN1C(=O)N2[C@H](c3ccccc3)c3[nH]c4ccc(OC)cc4c3C[C@@]2(C)C1=O` (racemic) [Example 55, (3aSR, 10RS)-2-{3-[Ethyl-(2-hydroxy-ethyl)-amino]-propyl}-6-methoxy-3a-methyl-10-phenyl-3a,4,9,10-tetrahydro-2,9,10a-triaza-cyclopenta[b]fluorene-1,3-dione] was tested. Which EC50 did it give?
**A.** Its EC50 is at most 1 µM.

**Q.** For `CCN(CCCN1C(=O)N2[C@H](c3ccccc3)c3[nH]c4ccc(OC)cc4c3C[C@@]2(C)C1=O)CCOC` (racemic) [Example 56, (3aSR, 10RS)-2-{3-[Ethyl-(2-methoxy-ethyl)-amino]-propyl}-6-methoxy-3a-methyl-10-phenyl-3a,4,9,10-tetrahydro-2,9,10a-triaza-cyclopenta[b]fluorene-1,3-dione], which EC50 is on record?
**A.** Its EC50 is at most 1 µM.

**Q.** For `C=CCN(C)CCCN1C(=O)N2[C@H](c3ccccc3)c3[nH]c4ccc(OC)cc4c3C[C@@]2(C)C1=O` (racemic) [Example 57, (3aSR, 10RS)-2-[3-(Allyl-methyl-amino)-propyl]-6-methoxy-3a-methyl-10-phenyl-3a,4,9,10-tetrahydro-2,9,10a-triaza-cyclopenta[b] fluorene-1,3-dione], which EC50 is on record?
**A.** Its EC50 is at most 1 µM.
